Consider five compounds from patent US20260256770A1, “COMPOSITIONS FOR AND METHODS OF TREATING HEREDITARY AORTOPATHIES” (Duke University, priority 2021, published 2026).

Entries after “also recorded” stand apart in the source; their conditions may differ.

Data set [1] concerns 129S MFS mice. To be noted: 129S background, Mmp17/EGFR/p38MAPK/ERK effects; cited from earlier work.
Data set [2] relates to accelerated MFS (aMFS) mice. To be noted: aMFS aneurysms generated with exogenous angiotensin II; cited from earlier work.
Data set [3] concerns MFS mice. The note with it: cited from earlier work.
Data set [4] relates to MFS patients. To be noted: clinical; cited from earlier work.
Data set [5] addresses T1, TRPC4 (Mus musculus, UniProt Q9QUQ5).
T1 construct: expressed in transfected cells; host or cells: HEK293
T1 sequence (Q9QUQ5 1-890 isoform Q9QUQ5-2): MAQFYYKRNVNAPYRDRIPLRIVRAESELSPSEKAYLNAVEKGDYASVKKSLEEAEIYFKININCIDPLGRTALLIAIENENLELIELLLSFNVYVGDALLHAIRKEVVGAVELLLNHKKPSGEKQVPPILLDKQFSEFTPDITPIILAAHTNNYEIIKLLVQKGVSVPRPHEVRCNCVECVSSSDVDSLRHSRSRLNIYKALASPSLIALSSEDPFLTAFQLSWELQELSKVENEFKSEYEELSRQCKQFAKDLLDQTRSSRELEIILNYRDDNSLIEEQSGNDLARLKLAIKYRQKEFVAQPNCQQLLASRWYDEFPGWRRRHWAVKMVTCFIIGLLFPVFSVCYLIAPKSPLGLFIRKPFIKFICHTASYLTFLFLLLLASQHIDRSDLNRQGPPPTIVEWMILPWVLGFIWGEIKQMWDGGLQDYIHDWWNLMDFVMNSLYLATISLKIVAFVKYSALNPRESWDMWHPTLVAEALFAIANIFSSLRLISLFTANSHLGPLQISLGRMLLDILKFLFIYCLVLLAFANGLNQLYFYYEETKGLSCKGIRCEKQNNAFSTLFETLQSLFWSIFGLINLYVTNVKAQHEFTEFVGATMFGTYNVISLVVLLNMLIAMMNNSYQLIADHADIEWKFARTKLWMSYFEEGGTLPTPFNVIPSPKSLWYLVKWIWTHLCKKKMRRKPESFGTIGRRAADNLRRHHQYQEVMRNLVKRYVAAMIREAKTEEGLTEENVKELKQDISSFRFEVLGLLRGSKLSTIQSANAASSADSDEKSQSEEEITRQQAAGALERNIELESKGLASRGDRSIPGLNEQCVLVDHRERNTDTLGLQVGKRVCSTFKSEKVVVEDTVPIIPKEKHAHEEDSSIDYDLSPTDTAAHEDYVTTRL
The note with it: ML204 as reference for projected binding affinity of candidate inhibitors; cited from earlier work.

The test system of data set [6] is FBN1 mutant MFS mouse. Kind of data set: Accelerated MFS model: osmotically delivered angiotensin II infusion in FBN1 mutant MFS mouse. The class given is in vivo. The text has this:
(§1) The Examples provided infra use a novel murine MFS model of accelerated aortic aneurysm formation and cardiomyopathy. This MFS uses two well-characterized in vivo systems for studying aortopathy and cardiomyopathy, namely, the FBN1 mutant MFS mouse and osmotically delivered angiotensin II infusion. In this accelderated model, significant aortic aneurysms were observed as early as 10 days after angiotensin II pump implantation. […] Overwhelmingly, these deaths were a result of ascending aortic aneurysm rupture or dissection. […] Similarly, the accelerated MFS model described and used herein produced a dilated cardiomyopathy as early as 14 days after angiotensin II minipump installation, as determined by echocardiographic measurements of end-diastolic volume and ejection fraction, heart mass-to-body weight ratios, and hematoxylin and eosin tissue staining patterns consistent with the diagnosis. After 14 days of pump installation, 60% of surviving angiotensin II-infused MFS mice met a defined echocardiographic criteria for dilated cardiomyopathy.
(§2) To better understand these clinical differences, a MFS mouse model was generated to facilitate high throughput therapeutic screening. Using exogenous angiotensin II in MFS mice, ascending aortic aneurysms can be generated in 2 weeks instead of 6-9 months (Cavanaugh N B, et al. (2017) Ann Thorac Surg. 104:657-665). […] TRPC4 antagonists therefore represent an opportunity to replace surgery in MFS aortopathy.

The test system of data set [7] is FBN1 mutant MFS mouse. The note with it: instead of 6-9 months in MFS mice; cited from earlier work.
The nature of data set [8]: Accelerated MFS model: osmotically delivered angiotensin II infusion in FBN1 mutant MFS mouse. To be noted: angiotensin II-infused wild-type mice over the treatment period. The class given is in vivo.
Text: as §1, §2

Take `C#Cc1cccc(Nc2ncnc3cc(OCCOC)c(OCCOC)cc23)c1` [Erolotinib]: the “aggressive MFS phenotype” value in data set [1] was “rescue the aggressive MFS phenotype”.

As for `CCCCc1nc(Cl)c(CO)n1Cc1ccc(-c2ccccc2-c2nn[nH]n2)cc1` [Losartan], the “response of aneurysms to therapy” value in data set [2] is “only partially respond”. For the same compound, in data set [3] (MFS mice started on therapy after aneurysms have formed / later in life), the aneurysm growth result is recorded as “only attenuates aneurysm growth; also recorded: aneurysms continue to grow albeit at a slower rate; also recorded: had less of an effect”. In addition, the “aneurysm formation / development” value in data set [3] (MFS mice treated prior to aneurysm development / at an early age) is listed as “blocked aneurysm formation; also recorded: blocks aneurysm development; also recorded: did not develop aneurysms”. Further, the aortic diameter growth in data set [3] (estimate used for power calculation, 0.1 mm standard deviation) is 0.4 mm. Further, in data set [4], the aneurysm progression result is reported as “only slowed aneurysm progression” and the “number of patients who ultimately required surgery” value was “did not affect”.

As to `Cc1cc(N2CCCCC2)nc2ccccc12` [ML204, 4-Methyl-2-(piperidin-1-yl) quinoline], the IC50 in data set [5] was 960 to 2600 nM.

With “angiotensin II (DRVYIHPF; Angiotensin-2; UniProt P11859 25-32, looked up) [osmotically delivered exogenous angiotensin II used to accelerate aneurysm formation in MFS mice]”, the results for the “deaths of treatment group” value in data set [6] (at 14 days after implant) and in data set [6] (at 28 days after implant) were “one third” and “more than half”, respectively.

As for “angiotensin II [osmotically delivered exogenous angiotensin II used to accelerate aneurysm formation in MFS mice]”, the “time to generate ascending aortic aneurysms” value in data set [7] is 2 weeks. The “time to significant aortic aneurysms after pump implantation” value in data set [6] (MFS mice) was not below 10 days. The “time to dilated cardiomyopathy after minipump installation” value in data set [6] (MFS mice, echocardiography) is on record as not below 14 days. Also, the “surviving mice meeting echocardiographic criteria for dilated cardiomyopathy” value in data set [6] (after 14 days of pump installation) is listed as 60%. Also, the blood pressures entry in data set [6] (treatment group) was “not elevated”. The aneurysm formation entry in data set [8] is “did not form aneurysms”.

What is called IC50 is the midpoint of a concentration-inhibition curve.
